22 compounds from patent US8481537B2, “Caspase inhibitors based of pyridazinone scaffold” (LG Life Sciences Ltd., priority 2006, dated 2013) can be followed below.

The structures appear in SMILES notation.

In one test the target is T1, Caspase-8 (Homo sapiens, UniProt Q14790).
T1 construct: p10 and p20 subunits (Thornberry, N. A. et al, Nature, 1992, 356, 768) were expressed in E. coli; made in house; host or cells: E. coli
Description: Caspase inhibitory effect, fluorescent substrate AcDEVD-AFC. The test is classed as biochemical. Conditions: pH 7.5; 2.1 nM caspase-8, 50 μM AcDEVD-AFC, 25° C., pH 7.50; read-out: Caspase-8 Kobs/[I] (converted). As to the method:
Caspase-1 and caspase-8 known as cysteine proteases in the form of α2β2 were expressed, purified, and activated by modifying a method known in Thornberry, N. A. et al, Nature, 1992, 356, 768. Thornberry, N. A. Methods in Enzymology, 1994, 244, 615. Walker, N. P. C. et al. Cell, 1994, 78, 343, and caspase-9 was also purified by a similar method, and the inhibitory activity against them was tested. Briefly describing, p10 and p20 subunits (Thornberry, N. A. et al, Nature, 1992, 356, 768) were expressed in E. coli and purified by nickel column and anionic exchange chromatography to give caspase-1, caspase-8 and caspase-9. The fluorescent substrates AcYVAD-AFC for thus obtained caspase-1, AcDEVD-AFC for caspase-8, and AcLEHD-AFC for caspase-9, were used for determining specific activity of the synthesized inhibitors. The enzyme reaction was carried out at 25° C. with various concentrations of the inhibitors in a buffer solution containing 50 mM HEPES(pH 7.50), 10% (w/v) sucrose, 0.1% (w/v) CHAPS, 100 mM NaCl, 1 mM EDTA, and 10 mM DTT in the presence of 50 μM AcYVAD-AFC for 10 nM caspase-1, 50 μM AcDEVD-AFC for 2.1 nM caspase-8, and 150 μM AcLEHD-AFC for 200 nM caspase-9. The inhibitory constants Ki and Kobs of the inhibitors were determined by measuring the reaction velocity with the time lapse using a fluorescent spectrometer and by obtaining the initial rate constant. Ki was calculated from the Lineweaver Burk Plot, and Kobs from the following Equation 1. Kobs=−ln(1−At/Aoo)/t [Equation 1]
At means cleavage rate (%) at time t, and
Aoo means the maximum cleavage rate (%).
Spectra MAX GeminiXS Fluorescent Spectrometer of Molecular Device Co. was used at the excitation wavelength of 405 nm and the emission wavelength of 505 nm.

Test [1] concerns Jurkat cell (ATCC TIB-152). Description: Jurkat cell apoptosis induced by Fas antibody, WST-1 method. The test is classed as cell-based. Conditions: Homo sapiens, amount of alive cells by WST-1. As to the method: The […] inhibitory activity of the inhibitors was determined by subjecting Jurkat cell (ATCC TIB-152) to apoptosis using Fas antibody (Upstate Biotech 05-201) and by detecting the color change according to the WST-1 method known in Francoeur A. M. and Assalian A. (1996) Biochemica 3, 19-25 to observe the amount of alive Jurkat cells when the cells were treated by the inhibitor. Spectra MAX 340 Spectrometer of Molecular Device Co. was used at the absorbance wavelength of 440 nm.

T1 sequence (Q14790 217-374 limits assumed, species assumed): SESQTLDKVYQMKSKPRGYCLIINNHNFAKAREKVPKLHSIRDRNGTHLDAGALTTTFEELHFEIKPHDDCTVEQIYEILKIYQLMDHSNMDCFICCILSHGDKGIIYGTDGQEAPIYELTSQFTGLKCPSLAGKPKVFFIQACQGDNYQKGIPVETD
T1 sequence (Q14790 385-479 limits assumed, species assumed): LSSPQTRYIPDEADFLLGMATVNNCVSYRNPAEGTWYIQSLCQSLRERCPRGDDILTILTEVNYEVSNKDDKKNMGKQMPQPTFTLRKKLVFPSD

Broadly, the IC50 is the concentration that gives 50% inhibition. Low readings indicate higher potency, high ones lower potency. On to `CC[C@@H](C(=O)N[C@@H](CC(=O)O)C(=O)COc1c(F)ccc(F)c1F)c1ccnn(Cc2ccccc2C(C)(C)C)c1=O` [Example 26-1, (S)-3-{(R)-2-[2-(2-tert-Butyl-benzyl)-3-oxo-2,3-dihydro-pyridazin-4-yl]-butyrylamino}-4-oxo-5-(2,3,6-trifluoro-phenoxy)-pentanoic acid], for which the kinact/KI at Caspase-8 is 28300 M⁻¹ s⁻¹. This compound also had an IC50 in test [1] of 0.045 µM.

Consider `CCC(C(=O)NC(CC(=O)O)C(=O)CF)c1ccnn(CC2CCCCC2)c1=O` (centres unmarked) [Example 16, 3-[2-(2-Cyclohexylmethyl-3-oxo-2,3-dihydro-pyridazin-4-yl)-butyrylamino]-5-fluoro-4-oxo-pentanoic acid], for which the kinact/KI at Caspase-8 was 12300 M⁻¹ s⁻¹. Further, the midpoint of inhibition in test [1], the IC50, lay at 0.09 µM.

`CC[C@H](C(=O)N[C@@H](CC(=O)O)C(=O)COc1c(F)c(F)cc(F)c1F)c1ccnn(Cc2ccccc2C(C)(C)C)c1=O` [Example 24-2, (S)-3-{(S)-2-[2-(2-tert-Butyl-benzyl)-3-oxo-2,3-dihydro-pyridazin-4-yl]-butyrylamino}-4-oxo-5-(2,3,5,6-tetrafluoro-phenoxy)-pentanoic acid]: on Caspase-8, the kinact/KI was 1830 M⁻¹ s⁻¹. In test [1], this compound displayed an IC50 of 4.15 µM.

For the compound `CCC(C(=O)NC(CC(=O)O)C(=O)CF)c1ccnn(Cc2ccc3ccccc3c2)c1=O` (centres unmarked) [Example 12, 5-Fluoro-3-[2-(2-naphthalen-2-ylmethyl-3-oxo-2,3-dihydro-pyridazin-4-yl)-butyrylamino]-4-oxo-pentanoic acid], the kinact/KI at Caspase-8 was 15500 M⁻¹ s⁻¹. The compound further had an IC50 in test [1] of 0.29 µM.

Turning to `CCC(C(=O)NC(CC(=O)O)C(=O)CF)c1ccnn(Cc2cccc(C(F)(F)F)c2)c1=O` (centres unmarked) [Example 22, 5-Fluoro-4-oxo-3-{2-[3-oxo-2-(3-trifluoromethyl-benzyl)-2,3-dihydro-pyridazin-4-yl]-butyrylamino}-pentanoic acid], on Caspase-8, the kinact/KI is 14300 M⁻¹ s⁻¹. The IC50 in test [1] is 0.216 µM.

As for `CC[C@@H](C(=O)N[C@@H](CC(=O)O)C(=O)COC(=O)c1c(Cl)cccc1Cl)c1ccnn(Cc2ccccc2C(C)(C)C)c1=O` (single isomer, unassigned) [Example 23-1], the kinact/KI on Caspase-8 was 20000 M⁻¹ s⁻¹. The compound also gave an IC50 in test [1] of 0.14 µM.

For `CC[C@H](C(=O)N[C@@H](CC(=O)O)C(=O)COc1c(F)c(F)cc(F)c1F)c1ccnn(Cc2cccc(C(C)(C)C)c2)c1=O` [Example 25-2, (S)-3-{(S)-2-[2-(3-tert-Butyl-benzyl)-3-oxo-2,3-dihydro-pyridazin-4-yl]-butyrylamino}-4-oxo-5-(2,3,5,6-tetrafluoro-phenoxy)-pentanoic acid], on Caspase-8, the kinact/KI was 900 M⁻¹ s⁻¹. In test [1], this compound yielded an IC50 of 1.94 µM.

Regarding `CCC(C(=O)NC(CC(=O)O)C(=O)CF)c1ccnn(Cc2ccccc2C(C)(C)C)c1=O` (centres unmarked) [Example 6, 3-2-[2-(2-tert-Butyl-benzyl)-3-oxo-2,3-dihydro-pyridazin-4-yl]-butyrylamino-5-fluoro-4-oxo-pentanoic acid], the kinact/KI on Caspase-8 was 63300 M⁻¹ s⁻¹. The compound also had an IC50 in test [1] of 0.042 µM.

Regarding `CC[C@H](C(=O)N[C@@H](CC(=O)O)C(=O)COC(=O)c1c(Cl)cccc1Cl)c1ccnn(Cc2ccccc2C(C)(C)C)c1=O` (single isomer, unassigned) [Example 23-2], the kinact/KI at Caspase-8 is 933 M⁻¹ s⁻¹. This compound also registered an IC50 in test [1] of 2.48 µM.

For the compound `CCC(C(=O)NC(CC(=O)O)C(=O)CF)c1ccnn(Cc2ccccc2Cl)c1=O` (centres unmarked) [Example 18, 3-{2-[2-(2-Chloro-benzyl)-3-oxo-2,3-dihydro-pyridazin-4-yl]-butyrylamino}-5-fluoro-4-oxo-pentanoic acid], the kinact/KI on Caspase-8 is 73300 M⁻¹ s⁻¹. The compound further registered an IC50 in test [1] of 0.042 µM.

Take `CCC(C(=O)NC(CC(=O)O)C(=O)CF)c1ccnn(Cc2csc(C)n2)c1=O` (centres unmarked) [Example 14, 5-Fluoro-3-2-[2-(2-methyl-thiazol-4-ylmethyl)-3-oxo-2,3-dihydro-pyridazin-4-yl]-butyrylamino-4-oxo-pentanoic acid]: the kinact/KI at Caspase-8 was 14000 M⁻¹ s⁻¹. This compound also had an IC50 in test [1] of 0.73 µM.

Consider `CC[C@@H](C(=O)N[C@@H](CC(=O)O)C(=O)COc1c(F)c(F)cc(F)c1F)c1ccnn(Cc2ccccc2C(C)(C)C)c1=O` [Example 24-1, (S)-3-{(R)-2-[2-(2-tert-Butyl-benzyl)-3-oxo-2,3-dihydro-pyridazin-4-yl]-butyrylamino}-4-oxo-5-(2,3,5,6-tetrafluoro-phenoxy)-pentanoic acid], for which, on Caspase-8, the kinact/KI is 63300 M⁻¹ s⁻¹. Also, the IC50 in test [1] came to 0.012 µM.

As to `CCC(C(=O)NC(CC(=O)O)C(=O)CF)c1ccnn(Cc2cccc(C)c2)c1=O` (centres unmarked) [Example 9, 5-Fluoro-3-2-[2-(3-methyl-benzyl)-3-oxo-2,3-dihydro-pyridazin-4-yl]-butyryl amino-4-oxo-pentanoic acid], the kinact/KI at Caspase-8 was 50000 M⁻¹ s⁻¹. The compound also came in with an IC50 in test [1] of 0.88 µM.

Consider `CCC(C(=O)NC(CC(=O)O)C(=O)CF)c1ccnn(Cc2ccccc2C)c1=O` (centres unmarked) [Example 8, 5-Fluoro-3-2-[2-(2-methyl-benzyl)-3-oxo-2,3-dihydro-pyridazin-4-yl]-butyryl amino-4-oxo-pentanoic acid], for which, at Caspase-8, the kinact/KI was 20000 M⁻¹ s⁻¹. Moreover, the half-inhibitory concentration (IC50) in test [1] came to 0.82 µM.

As to `CCC(C(=O)NC(CC(=O)O)C(=O)CF)c1c(C)cnn(Cc2ccccc2)c1=O` (centres unmarked) [Example 2, 3-[2-(2-Benzyl-5-methyl-3-oxo-2,3-dihydro-pyridazin-4-yl)-butyrylamino]-5-f luoro-4-oxo-pentanoic acid], the kinact/KI on Caspase-8 was 7330 M⁻¹ s⁻¹. Also, in test [1], the IC50 was 1.48 µM.

Consider `CCC(C(=O)NC(CC(=O)O)C(=O)CF)c1c(C)cnn(-c2ccccc2)c1=O` (centres unmarked) [Example 1, 5-Fluoro-3-[2-(5-methyl-3-oxo-2-phenyl-2,3-dihydro-pyridazin-4-yl)-butyrylamino]-4-oxo-pentanoic acid], for which, on Caspase-8, the kinact/KI is 967 M⁻¹ s⁻¹. Besides, the IC50 in test [1] amounted to 8 µM.

For the compound `CCC(C(=O)NC(CC(=O)O)C(=O)CF)c1ccnn(Cc2ccccc2)c1=O` (centres unmarked) [Example 3, 3-[2-(2-Benzyl-3-oxo-2,3-dihydro-pyridazin-4-yl)-butyrylamino]-5-fluoro-4-o xo-pentanoic acid], the kinact/KI at Caspase-8 was 21700 M⁻¹ s⁻¹. The compound also came in with an IC50 in test [1] of 0.46 µM.

For `CCC(C(=O)N[C@@H](CC(=O)O)C(=O)COP(=O)(c1ccccc1)c1ccccc1)c1ccnn(Cc2ccccc2C(C)(C)C)c1=O` (stereo partly drawn) [Example 28, (S)-3-{2-[2-(2-tert-Butyl-benzyl)-3-oxo-2,3-dihydro-pyridazin-4-yl]-butyrylamino}-5-(diphenyl-phosphinoyloxy)-4-oxo-pentanoic acid], the kinact/KI at Caspase-8 was 56700 M⁻¹ s⁻¹. Besides, in test [1], the IC50 came to 0.365 µM.

As to `CCC(C(=O)NC(CC(=O)O)C(=O)CF)c1ccnn(Cc2cccc(Br)c2)c1=O` (centres unmarked) [Example 20, 3-{2-[2-(3-Bromo-benzyl)-3-oxo-2,3-dihydro-pyridazin-4-yl]-butyrylamino}-5-fluoro-4-oxo-pentanoic acid], the kinact/KI at Caspase-8 was 18300 M⁻¹ s⁻¹. Also, the IC50 in test [1] was 0.043 µM.

Regarding `CCC(C(=O)NC(CC(=O)O)C(=O)CF)c1ccnn(Cc2coc(C)n2)c1=O` (centres unmarked) [Example 13, 5-Fluoro-3-2-[2-(2-methyl-oxazol-4-ylmethyl)-3-oxo-2,3-dihydro-pyridazin-4-yl]-butyrylamino-4-oxo-pentanoic acid], the kinact/KI at Caspase-8 was 11500 M⁻¹ s⁻¹. In addition, the IC50 in test [1] is 3.76 µM.

Turning to `CC[C@@H](C(=O)N[C@@H](CC(=O)O)C(=O)COc1c(F)c(F)cc(F)c1F)c1ccnn(Cc2cccc(C(C)(C)C)c2)c1=O` [Example 25-1, (S)-3-{(R)-2-[2-(3-tert-Butyl-benzyl)-3-oxo-2,3-dihydro-pyridazin-4-yl]-butyrylamino}-4-oxo-5-(2,3,5,6-tetrafluoro-phenoxy)-pentanoic acid], the kinact/KI at Caspase-8 is 26700 M⁻¹ s⁻¹. Moreover, the IC50 in test [1] is 0.031 µM.

In the case of `CC[C@@H](C(=O)N[C@@H](CC(=O)O)C(=O)COc1c(F)cccc1F)c1ccnn(Cc2ccccc2C(C)(C)C)c1=O` [Example 27-1, (S)-3-{(R)-2-[2-(2-tert-Butyl-benzyl)-3-oxo-2,3-dihydro-pyridazin-4-yl]-butyrylamino}-5-(2,6-difluoro-phenoxy)-4-oxo-pentanoic acid], the kinact/KI on Caspase-8 was 11700 M⁻¹ s⁻¹. This compound also came in with an IC50 in test [1] of 0.09 µM.
